{"source": "patent US20150051220A1", "about": "“COMPOUNDS FOR USE IN THERAPY” (GLUCOX BIOTECH AB, priority 2012, published 2015)", "assay": "Stroke model, transient middle cerebral artery occlusion (tMCAO)", "type": "in vivo", "conditions": "mice, 60 min tMCAO, 3.2 mg/kg i.p. at 2 h and 12 h, sacrificed 24 h after tMCAO, vs vehicle", "description": "FIG. 4 is a bar chart showing the infarct volume (mm3) in a mice model of stroke, where mice were treated with the inventive compound ethyl 2-(2-(4-(furan-2-carbonyl)piperazin-1-yl)acetamido)-5,6-dihydro-4H-cyclopenta[b]thiophene-3-carboxylate (“INVENTION”) or with vehicle (“CONTROL”).\nThe stroke disease model used in this example was mice that were subjected to transient middle cerebral artery occlusion (tMCAO) to mimic the mechanisms of ischemic stroke. Male mice weighing 20 g, was subjected to a 60 min of tMCAO as previously described (Elevers M et al., Sci. Signal 3: ra1, 2010; Bena_Erro A et al., Sci Signal 2: ra67). Sham-operated mice were used as control.\nFor the i.p. administrations performed in this study, 3.5 mg of ethyl 2-(2-(4-(furan-2-carbonyl)piperazin-1-yl)acetamido)-5,6-dihydro-4H-cyclopenta[b]thiophene-3-carboxylate was dissolved in 1 ml of DMSO and 5 ml of 20% Cremophor ELP in PBS then followed by additional PBS. The administered dose used in the experiment was 3.2 mg/kg and in the controls the same injection volume of vehicle was used. Administration was made at 2 h and 12 h for each mouse.\nTo determine infarct size and effect of Nox4 inhibitor, mice were sacrificed 24 h after tCMCAO and lesion volumes of the brain were determined according to a previously described methodology (Kleinschnitz et al, vide supra).", "data": [{"compound": "CCOC(=O)c1c(NC(=O)CN2CCN(C(=O)c3ccco3)CC2)sc2c1CCC2", "note": "[the inventive compound, ethyl 2-(2-(4-(furan-2-carbonyl)piperazin-1-yl)acetamido)-5,6-dihydro-4H-cyclopenta[b]thiophene-3-carboxylate]", "values": [{"measurement": "lesion volume of the brain (infarct volume)", "value": "significantly lower lesion volume of the brain"}]}]}
